Results reported in ChEMBL document CHEMBL5244223, “l,8-Naphthalimide based DNA intercalators and anticancer agents. A systematic review from 2007 to 2017” (Eur J Med Chem, 2018).
In brackets after ≈: the same amount, converted by molar mass. Values belong to the compound of their own block, whether it stands above or below them.

Experiments:
Jurkat = assay: Antiproliferative activity against human Jurkat cells assessed as inhibition of cell proliferation incubated for 72 hrs by MTT assay; type: functional, cell-based
Calf thymus DNA [1] = assay: Binding affinity to calf thymus DNA assessed as apparent binding constant by fluorescence based EtBr-displacement assay; type: nucleic-acid assay; settings: Bos taurus
A549 [2] = assay: Antiproliferative activity against human A549 cells assessed as inhibition of cell proliferation incubated for 72 hrs by MTT assay; type: functional, cell-based; settings: A549, 72 h
MCF7 [3] = assay: Antiproliferative activity against human MCF7 cells assessed as inhibition of cell proliferation incubated for 72 hrs by MTT assay; type: functional, cell-based; settings: MCF7, 72 h
T47D = assay: Cytotoxicity against human T47D cells assessed as cell growth inhibition incubated for 48 hrs by sulforhodamine B reagent assay; type: functional, cell-based
U-251 = assay: Cytotoxicity against human U-251 cells assessed as cell growth inhibition incubated for 48 hrs by sulforhodamine B reagent assay; type: functional, cell-based; settings: U-251, 48 h
K562 = assay: Cytotoxicity against human K562 cells assessed as cell growth inhibition incubated for 48 hrs by sulforhodamine B reagent assay; type: functional, cell-based; settings: K562, 48 h
Hs-578T = assay: Cytotoxicity against human Hs-578T cells assessed as cell growth inhibition incubated for 48 hrs by sulforhodamine B reagent assay; type: functional, cell-based
NCI-H322M = assay: Cytotoxicity against human NCI-H322M cells assessed as cell growth inhibition incubated for 48 hrs by sulforhodamine B reagent assay; type: functional, cell-based
HCT-116 = assay: Cytotoxicity against human HCT-116 cells assessed as cell growth inhibition incubated for 48 hrs by sulforhodamine B reagent assay; type: functional, cell-based; settings: HCT-116, 48 h
EKVX = assay: Cytotoxicity against human EKVX cells assessed as cell growth inhibition incubated for 48 hrs by sulforhodamine B reagent assay; type: functional, cell-based
RXF 393 = assay: Cytotoxicity against human RXF 393 cells assessed as cell growth inhibition incubated for 48 hrs by sulforhodamine B reagent assay; type: functional, cell-based; settings: RXF 393, 48 h
SF-539 = assay: Cytotoxicity against human SF-539 cells assessed as cell growth inhibition incubated for 48 hrs by sulforhodamine B reagent assay; type: functional, cell-based; settings: SF-539, 48 h
OVCAR-4 = assay: Cytotoxicity against human OVCAR-4 cells assessed as cell growth inhibition incubated for 48 hrs by sulforhodamine B reagent assay; type: functional, cell-based; settings: OVCAR-4, 48 h
SW-620 = assay: Cytotoxicity against human SW620 cells assessed as cell growth inhibition incubated for 48 hrs by sulforhodamine B reagent assay; type: functional, cell-based; settings: SW-620, 48 h
SK-MEL-5 = assay: Cytotoxicity against human SK-MEL-5 cells assessed as cell growth inhibition incubated for 48 hrs by sulforhodamine B reagent assay; type: functional, cell-based; settings: SK-MEL-5, 48 h
SNB-75 = assay: Cytotoxicity against human SNB-75 cells assessed as cell growth inhibition incubated for 48 hrs by sulforhodamine B reagent assay; type: functional, cell-based; settings: SNB-75, 48 h
MDA-MB-231 = assay: Cytotoxicity against human MDA-MB-231 cells assessed as cell growth inhibition incubated for 48 hrs by sulforhodamine B reagent assay; type: functional, cell-based; settings: MDA-MB-231, 48 h
DU-145 = assay: Cytotoxicity against human DU-145 cells assessed as cell growth inhibition incubated for 48 hrs by sulforhodamine B reagent assay; type: functional, cell-based; settings: DU-145, 48 h
SK-MEL-28 = assay: Cytotoxicity against human SK-MEL-28 cells assessed as cell growth inhibition incubated for 48 hrs by sulforhodamine B reagent assay; type: functional, cell-based; settings: SK-MEL-28, 48 h
MCF7 [4] = assay: Cytotoxicity against human MCF7 cells assessed as cell growth inhibition incubated for 48 hrs by sulforhodamine B reagent assay; type: functional, cell-based; settings: MCF7, 48 h
KM12 = assay: Cytotoxicity against human KM12 cells assessed as cell growth inhibition incubated for 48 hrs by sulforhodamine B reagent assay; type: functional, cell-based; settings: KM12, 48 h
786-0 = assay: Cytotoxicity against human 786-0 cells assessed as cell growth inhibition incubated for 48 hrs by sulforhodamine B reagent assay; type: functional, cell-based; settings: 786-0, 48 h
BT-549 = assay: Cytotoxicity against human BT-549 cells assessed as cell growth inhibition incubated for 48 hrs by sulforhodamine B reagent assay; type: functional, cell-based; settings: BT-549, 48 h
Malme-3M = assay: Cytotoxicity against human Malme-3M cells assessed as cell growth inhibition incubated for 48 hrs by sulforhodamine B reagent assay; type: functional, cell-based
Pseudomonas aeruginosa = assay: Antibacterial activity against Pseudomonas aeruginosa MTCC 741 assessed as inhibition of bacterial growth by agar well diffusion assay; type: functional
Calf thymus DNA [5] = assay: Binding affinity to calf thymus DNA assessed as DNA intercalation by measuring change in melting temperature by thermal denaturation assay; type: nucleic-acid assay; settings: Bos taurus
[6] = test system: Staphylococcus epidermidis; assay: Antibacterial activity against Staphylococcus epidermidis MTCC 435 assessed as inhibition of bacterial growth by agar well diffusion assay; type: functional
Escherichia coli [7] = assay: Antibacterial activity against Escherichia coli MTCC 443 assessed as inhibition of bacterial growth by agar well diffusion assay; type: functional
A2780 = assay: Cytotoxicity against human A2780 cells assessed as inhibition of cell growth incubated for 72 hrs by SRB assay; type: functional, cell-based; settings: A2780, 72 h
Staphylococcus aureus [8] = assay: Antibacterial activity against Staphylococcus aureus MTCC 96 assessed as inhibition of bacterial growth by agar well diffusion assay; type: functional
HepG2 = assay: Antiproliferative activity against human HepG2 cells assessed as inhibition of cell growth incubated for 48 hrs by MTT assay; type: functional, cell-based; settings: HepG2, 48 h
Bel-7402 = assay: Antiproliferative activity against human Bel-7402 cells assessed as inhibition of cell growth incubated for 48 hrs by MTT assay; type: functional, cell-based; settings: Bel-7402, 48 h
SMMC-7721 = assay: Antiproliferative activity against human SMMC-7721 cells assessed as inhibition of cell growth incubated for 48 hrs by MTT assay; type: functional, cell-based; settings: SMMC-7721, 48 h
H22 = assay: Antiproliferative activity against mouse H22 cells assessed as inhibition of cell growth incubated for 48 hrs by MTT assay; type: functional, cell-based; settings: H22, 48 h
Calf thymus DNA [9] = assay: Binding affinity to calf thymus DNA assessed as binding constant incubated for 30 mins by fluorescence based EtBr-displacement assay; type: nucleic-acid assay; settings: Bos taurus
Salmonella typhimurium = assay: Antibacterial activity against Salmonella typhimurium MTCC-98 assessed as inhibition of bacterial growth incubated for 24 hrs by two-fold serial dilution assay; type: functional, Salmonella enterica subsp. enterica serovar Typhimurium; settings: Salmonella enterica
Escherichia coli [10] = assay: Antibacterial activity against Escherichia coli MTCC-739 assessed as inhibition of bacterial growth incubated for 24 hrs by two-fold serial dilution assay; type: functional
Staphylococcus aureus [11] = assay: Antibacterial activity against Staphylococcus aureus MTCC-737 assessed as inhibition of bacterial growth incubated for 24 hrs by two-fold serial dilution assay; type: functional
Homo sapiens [12] = species: Homo sapiens; assay: Binding affinity to double stranded [poly(dG-dC)2] DNA (unknown origin) assessed as equilibrium binding constant by steady-state fluorescence spectroscopic analysis
Homo sapiens [13] = species: Homo sapiens; assay: Binding affinity to double stranded [poly(dA-dT)2] DNA (unknown origin) assessed as equilibrium binding constant by steady-state fluorescence spectroscopic analysis
Salmon testes DNA = assay: Binding affinity to salmon Testis DNA assessed as equilibrium binding constant by steady-state fluorescence spectroscopic analysis; settings: Salmo salar
HCT-8 = assay: Cytotoxicity against human HCT-8 cells assessed as cell growth inhibition by MTT assay; type: functional, cell-based
A549 [14] = assay: Cytotoxicity against human A549 cells assessed as cell growth inhibition by MTT assay; type: functional, cell-based
A-375 = assay: Cytotoxicity against human A-375 cells assessed as cell growth inhibition by MTT assay; type: functional, cell-based
P388 = assay: Cytotoxicity against mouse P388 cells assessed as cell growth inhibition by MTT assay; type: functional, cell-based
MCF7 [15] = assay: Cytotoxicity against human MCF7 cells assessed as cell growth inhibition by MTT assay; type: functional, cell-based
HL-60 = assay: Cytotoxicity against human HL-60 cells assessed as cell growth inhibition by MTT assay; type: functional, cell-based
HeLa = assay: Cytotoxicity against human HeLa cells assessed as cell growth inhibition by MTT assay; type: functional, cell-based
[16] = Selectivity ratio of IC50 for cytotoxicity against human HeLa cells under hypoxic condition to IC50 for cytotoxicity against human HeLa cells under aerobic condition; type: functional

IC50 (Jurkat): 5580 nM
Kapp (Calf thymus DNA [1]): 3.1 10^6/M
IC50 (A549 [2]): 5670 nM
IC50 (MCF7 [3]): 5670 nM
SMILES: O=C1c2cccc3cccc(c23)C(=O)N1CCCCCCNCc1ccccn1

SMILES: CN1CCN(c2ccc3nc(-c4ccc(OCCCN5C(=O)c6cccc7cccc(c67)C5=O)cc4)[nH]c3c2)CC1
IC50 (T47D): 110 nM
IC50 (U-251): 110 nM
IC50 (K562): 110 nM
IC50 (Hs-578T): 110 nM
IC50 (NCI-H322M): 110 nM
IC50 (HCT-116): 110 nM
IC50 (EKVX): 110 nM
IC50 (RXF 393): 110 nM
IC50 (SF-539): 110 nM
IC50 (OVCAR-4): 110 nM
IC50 (SW-620): 110 nM
IC50 (SK-MEL-5): 110 nM
IC50 (SNB-75): 110 nM
IC50 (MDA-MB-231): 110 nM
IC50 (DU-145): 110 nM
IC50 (SK-MEL-28): 110 nM
IC50 (MCF7 [4]): 110 nM
IC50 (KM12): 110 nM
IC50 (786-0): 110 nM
IC50 (BT-549): 110 nM
IC50 (Malme-3M): 110 nM

MIC (Pseudomonas aeruginosa): 18.8 µg/mL (≈ 26 µM)
ΔTm (Calf thymus DNA [5]): 0.1 °C
MIC [6]: 18.8 µg/mL (≈ 26 µM)
MIC (Escherichia coli [7]): 18.8 µg/mL (≈ 26 µM)
MIC (Staphylococcus aureus [8]): 18.8 µg/mL (≈ 26 µM)
SMILES: O=C1c2ccc3c4c(ccc(c24)C(=O)N1c1nc(-c2cc4ccccc4oc2=O)cs1)C(=O)N(c1nc(-c2cc4ccccc4oc2=O)cs1)C3=O
IC50 (A2780): < 100 nM

SMILES: O=C1c2cccc3cc([N+](=O)[O-])cc(c23)C(=O)N1CCCCN(CCCl)CCCl
IC50 (HepG2): 1900 nM
IC50 (Bel-7402): 1900 nM
IC50 (SMMC-7721): 1900 nM
IC50 (H22): 1900 nM

Kb (Calf thymus DNA [9]): 2 10^4/M
MIC (Salmonella typhimurium): 62 µg/mL (≈ 172 µM)
MIC (Escherichia coli [10]): 31 µg/mL (≈ 86 µM)
MIC (Staphylococcus aureus [11]): 62 µg/mL (≈ 172 µM)
SMILES: COc1ccc(/C=N/N2C(=O)c3cccc4cccc(c34)C2=O)cc1OC

Kb (Homo sapiens [12]): 0.82 10^5/M
Kb (Homo sapiens [13]): 5.15 10^5/M
Kb (Salmon testes DNA): 1.38 10^5/M
SMILES: C[n+]1ccc(CCN2C(=O)c3cccc4c(N)ccc(c34)C2=O)cc1

SMILES: COc1ccc2c(CC(=O)NCCN3C(=O)c4cccc5c(N(C)C)ccc(c45)C3=O)c(C)n(C(=O)c3ccc(Cl)cc3)c2c1
IC50 (HCT-8): 13900 nM
IC50 (A549 [14]): 13900 nM
IC50 (A-375): 13900 nM
IC50 (P388): 13900 nM
IC50 (MCF7 [15]): 13900 nM
IC50 (HL-60): 13900 nM
IC50 (HeLa): 13900 nM

SMILES: O=C1c2cccc3cccc(c23)C(=O)N1CCCCOc1ccc(-c2nc3ccc(N4CCOCC4)cc3[nH]2)cc1
IC50 (T47D): 110 nM
IC50 (U-251): 110 nM
IC50 (K562): 110 nM
IC50 (Hs-578T): 110 nM
IC50 (NCI-H322M): 110 nM
IC50 (HCT-116): 110 nM
IC50 (EKVX): 110 nM
IC50 (RXF 393): 110 nM
IC50 (SF-539): 110 nM
IC50 (OVCAR-4): 110 nM
IC50 (SW-620): 110 nM
IC50 (SK-MEL-5): 110 nM
IC50 (SNB-75): 110 nM
IC50 (MDA-MB-231): 110 nM
IC50 (DU-145): 110 nM
IC50 (SK-MEL-28): 110 nM
IC50 (MCF7 [4]): 110 nM
IC50 (KM12): 110 nM
IC50 (786-0): 110 nM
IC50 (BT-549): 110 nM
IC50 (Malme-3M): 110 nM

SMILES: COc1ccc2c(CC(=O)OCCN3C(=O)c4cccc5c(N(C)C)ccc(c45)C3=O)c(C)n(C(=O)c3ccc(Cl)cc3)c2c1
IC50 (HCT-8): 13900 nM
IC50 (A549 [14]): 13900 nM
IC50 (A-375): 13900 nM
IC50 (P388): 13900 nM
Ratio IC50 [16]: 1.3
IC50 (MCF7 [15]): 13900 nM
IC50 (HL-60): 13900 nM
IC50 (HeLa): 13900 nM
